Measured values as given in US7655670B2 (Janssen Pharmaceutica N.V., priority 2005, dated 2010).
pIC50: −log10 of the molar value. Where two headings read alike, the source gives them in different places.

Columns and labels:
[1] = biological target: T1, ORL-1 receptor (Homo sapiens, UniProt P41146); experiment: ORL-1 functional assay (calcium flux, FLIPR); type: cell-based; parameters: key to Inhibitor: a notation of “no” indicates that the compound did not act as an inhibitor; a notation of “yes” indicates that the compound acted as an inhibitor; a notation of “undetermined” indicates that the data did not clearly show whether or not the compound acted as an antagonist; details: for Inhibitor: HEK-293 cells over-expressing ORL-1 receptor and Gqi5 G protein, calcium flux; for % Inhibition (100 nM Nociceptin): inhibition of calcium signal from 100 nM nociceptin, HEK-293 cells with ORL-1 and Gqi5
T1 construct: expressed in transfected cells; host or cells: HEK-293 over-expressing ORL-1 and Gqi5
Experimental: To assay the function of a test compound, a HEK-293 cell line that over-expresses the ORL-1 receptor and the Gqi5 G protein (Molecular Devices) were employed. By using a calcium flux assay, agonism and antagonism through the ORL-1 receptor were detectable.
The HEK-293 cells were plated two days prior to assay. For assay, cells in 50 μl of medium were incubated with 50 μl of dye (Molecular Devices) for 1 hour at 37° C. 100 μl of test compound diluted in Hank's Buffered Salt Solution (HBSS) at 2-fold the indicated final concentration was added and time points taken every 1 second for 1 minute and every 3 seconds for an additional 1 minute using FLIPR384 (Molecular Devices). 50 μl of nociceptin (Neosystems, SA) at 5-fold the indicated final concentration was then added and additional time points were recorded every 1 second for 1 minute and every 3 seconds for an additional 1 minute.
The resulting data were processed using Microsoft Excel 6.0 and EC50 values were determined using GraphPad Prism 3.0. For agonists, the EC50 was determined from the initial calcium signal obtained after addition of the test compound. For compounds that behaved as antagonists, the percent inhibition or IC50 of the signal resulting from the subsequent addition of the nociceptin peptide was calculated.

[2] = biological target: human nociceptin receptor (ORL-1) (Homo sapiens, UniProt P41146); experiment: nociceptin receptor (ORL-1) binding assay, 125I-Tyr14-nociceptin displacement
[3] = biological target: Mu (μ) opioid receptor (Homo sapiens, UniProt P35372); experiment: Filtration binding assay, mu opioid receptor (Damgo-H3 ligand)
[4] = biological target: Delta (δ) opioid receptor (Homo sapiens, UniProt P41143); experiment: Filtration binding assay, delta opioid receptor (DPDPE-H3 ligand)
[5] = biological target: Kappa (κ) opioid receptor (Homo sapiens, UniProt P41145); experiment: Filtration binding assay, kappa opioid receptor (U69593-H3 ligand)
[6] = 1 D4 cell line membrane, Damgo-H3 ligand, calculated mean where tested more than once, read-out: Mu (μ) IC50
[7] = 2D4 cell line membrane, DPDPE-H3 ligand, calculated mean where tested more than once, read-out: Delta (δ) IC50
[8] = 2C2 cell line membrane, U69593-H3 ligand, calculated mean where tested more than once, read-out: Kappa (κ) IC50

Kappa (κ) opioid receptor, sequence (P41145 whole entry): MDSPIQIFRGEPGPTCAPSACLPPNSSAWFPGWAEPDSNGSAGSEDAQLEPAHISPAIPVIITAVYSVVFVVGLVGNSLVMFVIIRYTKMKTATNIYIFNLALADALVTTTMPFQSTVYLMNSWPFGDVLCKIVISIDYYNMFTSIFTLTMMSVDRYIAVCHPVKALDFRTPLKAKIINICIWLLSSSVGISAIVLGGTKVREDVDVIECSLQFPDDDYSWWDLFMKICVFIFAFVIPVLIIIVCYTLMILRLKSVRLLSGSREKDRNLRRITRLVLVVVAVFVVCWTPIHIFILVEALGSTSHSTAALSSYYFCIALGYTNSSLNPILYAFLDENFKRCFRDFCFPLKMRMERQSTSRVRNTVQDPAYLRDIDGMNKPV
Mu (μ) opioid receptor, sequence (P35372 whole entry): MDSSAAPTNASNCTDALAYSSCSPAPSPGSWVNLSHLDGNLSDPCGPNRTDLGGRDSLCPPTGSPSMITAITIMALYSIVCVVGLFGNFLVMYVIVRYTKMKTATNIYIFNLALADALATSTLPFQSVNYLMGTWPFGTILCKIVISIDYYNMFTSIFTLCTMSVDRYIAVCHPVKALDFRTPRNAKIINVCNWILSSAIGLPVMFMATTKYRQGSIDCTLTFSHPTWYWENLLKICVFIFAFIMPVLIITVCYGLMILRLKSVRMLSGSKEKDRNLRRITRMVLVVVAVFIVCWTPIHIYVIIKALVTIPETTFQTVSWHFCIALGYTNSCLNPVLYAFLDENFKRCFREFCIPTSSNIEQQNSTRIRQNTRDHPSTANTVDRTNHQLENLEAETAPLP
Delta (δ) opioid receptor, sequence (P41143 whole entry): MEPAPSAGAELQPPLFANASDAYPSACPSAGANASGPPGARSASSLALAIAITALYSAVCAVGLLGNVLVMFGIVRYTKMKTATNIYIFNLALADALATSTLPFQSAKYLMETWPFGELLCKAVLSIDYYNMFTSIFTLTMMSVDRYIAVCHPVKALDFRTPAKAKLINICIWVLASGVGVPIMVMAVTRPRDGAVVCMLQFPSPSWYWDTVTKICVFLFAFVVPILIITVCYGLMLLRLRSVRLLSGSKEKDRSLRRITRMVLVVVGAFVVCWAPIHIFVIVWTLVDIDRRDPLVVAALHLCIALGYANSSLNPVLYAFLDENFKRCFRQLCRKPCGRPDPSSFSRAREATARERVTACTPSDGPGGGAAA
T1 sequence (P41146 whole entry): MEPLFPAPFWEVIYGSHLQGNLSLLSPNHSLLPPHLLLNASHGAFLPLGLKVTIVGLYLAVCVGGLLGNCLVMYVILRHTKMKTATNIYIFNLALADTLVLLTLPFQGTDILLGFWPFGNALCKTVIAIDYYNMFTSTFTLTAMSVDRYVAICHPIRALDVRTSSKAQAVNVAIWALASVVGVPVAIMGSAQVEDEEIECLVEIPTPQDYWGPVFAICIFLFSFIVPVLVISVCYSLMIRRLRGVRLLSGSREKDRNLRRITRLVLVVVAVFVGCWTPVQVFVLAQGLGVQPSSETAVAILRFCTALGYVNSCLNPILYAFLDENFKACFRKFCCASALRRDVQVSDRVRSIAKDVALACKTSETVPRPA
human nociceptin receptor (ORL-1), sequence (P41146 whole entry): as above

SMILES	pIC50 [2]	pIC50 [3, 6]	pIC50 [5, 8]	other results
COC(=O)CN1C(=O)C2(CCN(CC3CCCCCC3)CC2)c2ccccc21 [Compound 1]	6.29			Inhibitor [1]: no
O=C1N(CC2CCCCC2)c2ccccc2C12CCN(C1Cc3cccc4cccc1c34)CC2 (stereo not shown) [Compound 4]		< 5.00		pIC50 [4, 7]: < 5.00
COc1ccc2c(c1)N(CC1CC1)C(=O)C21CCN(CC2CCCCCCC2)CC1 [Compound 5, 1-(cyclopropyl-methyl)-5-(cyclooctyl-methyl)-10-methoxy-spiro[indoline-3,4′-piperidin]-2-one]				pIC50 [3]: < 5.00
CC(C)c1ccc2c(c1)C1(CCN(CC3CCCCCCC3)CC1)C(=O)N2C [Compound 7, 1-methyl-5-(cyclooctyl-methyl)-9-isopropyl-spiro[indoline-3,4′-piperidin]-2-one]	5.13			pIC50 ([5]; read-out: Kappa (κ) IC50): 7.01; pIC50 ([3]; read-out: Mu (μ) IC50): 6.01
CN1C(=O)C2(CCN(CC3CCCCCCC3)CC2)c2cc(C(F)(F)F)ccc21 [Compound 8, 1-methyl-5-(cyclooctyl-methyl)-9-trifluoromethyl-spiro[indoline-3,4′-piperidin]-2-one]	6.22	5.27		pIC50 [4]: < 5.00
CN1C(=O)C2(CCN(CC3CCCCCCC3)CC2)c2cc(F)ccc21 [Compound 9, 1-methyl-5-(cyclooctyl-methyl)-9-fluoro-spiro[indoline-3,4′-piperidin]-2-one]	7.64	6.00	6.60	Inhibitor [1]: undetermined; % Inhibition (100 nM Nociceptin) [1]: 41 ± 26%; pIC50 [4]: < 5.00
COC(=O)CN1C(=O)C2(CCN(Cc3ccc(C(F)(F)F)cc3)CC2)c2ccccc21 [Compound 11]	6.06			
COC(=O)CN1C(=O)C2(CCN(Cc3cccc(C(F)(F)F)c3)CC2)c2ccccc21 [Compound 12]	6.85			
CN1C(=O)C2(CCN(C(=O)OC(C)(C)C)CC2)c2cc(C(F)(F)F)ccc21 [Compound 14, 1-methyl-5-tert-butoxycarbonyl-9-trifluoromethyl-spiro[indoline-3,4′-piperidin]-2-one]	< 5.00			
COC(=O)CN1C(=O)C2(CCN(C3CCC4CCCCC4C3)CC2)c2ccccc21 (stereo not shown) [Compound 15]	6.05			
CC(=O)N[C@@H](CSCC(O)CN1C(=O)C2(CCN(CC3CCCCCCC3)CC2)c2ccccc21)C(=O)O (stereo partly shown) [Compound 16]		6.44	6.44	pIC50 [4, 7]: < 5.00
CCCN1C(=O)C2(CCN(CC3CCCCCCC3)CC2)c2cc(C(C)C)ccc21 [Compound 17]		< 5.00	5.40	pIC50 [4, 7]: 5.24
O=C1Nc2ccccc2C12CCN(CC1CCCCCCC1)CC2 [Compound 18]	6.42	5.95	6.37	Inhibitor [1]: yes; % Inhibition (100 nM Nociceptin) [1]: 45 ± 9%
CN1C(=O)C2(CCN(CC3CCCCCCC3)CC2)c2ccc(O)cc21 [Compound 19]	5.57	< 5.00	6.92	pIC50 [4, 7]: 6.52
O=C1N(CCO)c2ccccc2C12CCN(CC1CCCCCCC1)CC2 [Compound 20]	6.54	5.77		
COC(=O)CN1C(=O)C2(CCN(CC3CC3)CC2)c2ccccc21 [Compound 23]	5.44			
COC(=O)CN1C(=O)C2(CCN(CC3CCCCC3)CC2)c2ccccc21 [Compound 24]	6.10			Inhibitor [1]: yes; % Inhibition (100 nM Nociceptin) [1]: 32 ± 2%
CCCCCCN1CCC2(CC1)C(=O)N(CC(=O)OC)c1ccccc12 [Compound 26]	6.09			
COC(=O)CN1C(=O)C2(CCN(CC3CCCCCCCCCCC3)CC2)c2ccccc21 [Compound 27]	5.95			

SMILES	pIC50 [2]	pIC50 [3, 6]	pIC50 [5, 8]	other results
COC(=O)CN1C(=O)C2(CCN(CC3CCC(C(C)(C)C)CC3)CC2)c2ccccc21 (stereo not shown) [Compound 29]	7.00			
COC(=O)CN1C(=O)C2(CCN(C3Cc4cccc5cccc3c45)CC2)c2ccccc21 (stereo not shown) [Compound 30]		< 5.00	5.36	pIC50 [4, 7]: < 5.00
COC(=O)CN1C(=O)C2(CCN(Cc3ccc4ccccc4c3)CC2)c2ccccc21 [Compound 32]	6.60			
COc1ccc2c(c1)N(C)C(=O)C21CCN(CC2CCCCCCC2)CC1 [Compound 35, 1-methyl-5-(cyclooctyl-methyl)-10-methoxy-spiro[indoline-3,4′-piperidin]-2-one]	5.62	5.79	5.91	
COC(=O)CN1C(=O)C2(CCN(Cc3ccc(Cl)cc3)CC2)c2ccccc21 [Compound 39]	6.15			
O=C(O)CN1C(=O)C2(CCN(CC3CCCCCCC3)CC2)c2ccccc21 [Compound 41]				pIC50 [5]: < 5.00; pIC50 [3]: < 5.00; pIC50 [4]: < 5.00
COC(=O)CN1C(=O)C2(CCN(CC3CCCCCCC3)CC2)c2ccccc21 [Compound 42]	7.00	5.45	6.19	
COC(=O)CN1C(=O)C2(CCN(Cc3cccc4ccccc34)CC2)c2ccccc21 [Compound 43]	6.33			
O=C1N(Cc2ccccc2)c2ccccc2C12CCN(CC1CCCCCCC1)CC2 [Compound 44]	6.92	6.02	5.96	
CN1C(=O)C2(CCN(CC3CCCCCCC3)CC2)c2ccccc21 [Compound 45]	7.49	5.89	6.03	Inhibitor [1]: no
CC(=O)OCCN1C(=O)C2(CCN(CC3CCCCCCC3)CC2)c2ccccc21 [Compound 46]	6.74	5.85	5.58	Inhibitor [1]: no
CCN1C(=O)C2(CCN(CC3CCCCCCC3)CC2)c2ccc(OC)cc21 [Compound 55, 1-ethyl-5-(cyclooctyl-methyl)-10-methoxy-spiro[indoline-3,4′-piperidin]-2-one]	5.56	5.84		
Cc1ccc2c(c1)C1(CCN(CC3CCCCCCC3)CC1)C(=O)N2C [Compound 57, 1-methyl-5-(cyclooctyl-methyl)-9-methyl-spiro[indoline-3,4′-piperidin]-2-one]	6.35	5.37	6.27	Inhibitor [1]: no; pIC50 [4, 7]: < 5.00
Cc1ccc2c(c1)N(C)C(=O)C21CCN(CC2CCCCCCC2)CC1 [Compound 58, 1-methyl-5-(cyclooctyl-methyl)-10-methyl-spiro[indoline-3,4′-piperidin]-2-one]	6.82	5.19	5.62	Inhibitor [1]: undetermined; % Inhibition (100 nM Nociceptin) [1]: 48 ± 26%; pIC50 [4, 7]: 5.06
Cc1cccc2c1C1(CCN(CC3CCCCCCC3)CC1)C(=O)N2C [Compound 59, 1-methyl-5-(cyclooctyl-methyl)-8-methyl-spiro[indoline-3,4′-piperidin]-2-one]	7.43	6.32	6.25	Inhibitor [1]: yes; % Inhibition (100 nM Nociceptin) [1]: 81 ± 6%
O=C1N(CC2CO2)c2ccccc2C12CCN(CC1CCCCCCC1)CC2 (stereo not shown) [Compound 60]	7.08	6.08	6.32	Inhibitor [1]: no; % Inhibition (100 nM Nociceptin) [1]: 17 ± 3%
O=C1N(CC(O)CNCCN2CCOCC2)c2ccccc2C12CCN(CC1CCCCCCC1)CC2 (stereo not shown) [Compound 61]	6.92			pIC50 ([5]; read-out: Kappa (κ) IC50): 7.00; pIC50 ([3]; read-out: Mu (μ) IC50): 6.30
CCN(Cc1ccc(C)cc1)CC(O)CN1C(=O)C2(CCN(CC3CCCCCCC3)CC2)c2ccccc21 (stereo not shown) [Compound 62]	6.49	6.21	6.66	
CCN1CC2(CCN(CC3CCCCCCC3)CC2)c2ccc(OC)cc21 [Compound 63]		< 5.00	< 5.00	pIC50 [4, 7]: < 5.00
